The record followed here is ChEMBL document CHEMBL2074058, “Regulation by dexamethasone of P-glycoprotein expression in cultured rat hepatocytes” (FEBS Lett, 1993).

The target in test [1] is Multidrug resistance protein 1a (Rattus norvegicus) (UniProt Q6PSM0). The test is described as follows: TP_TRANSPORTER: Western blot, primary hepatocytes. It is filed as functional, cell-based. To be noted: Hepatocyte. (In general: Immunoblotting shows a protein as a band on a membrane.)
Test [2] has the same target. As to the kind of experiment: TP_TRANSPORTER: Northern blot from primary hepatocytes. It is filed as functional, cell-based. To be noted: Hepatocyte.

Sequence of Multidrug resistance protein 1a (Rattus norvegicus) (Q6PSM0 as listed by the source): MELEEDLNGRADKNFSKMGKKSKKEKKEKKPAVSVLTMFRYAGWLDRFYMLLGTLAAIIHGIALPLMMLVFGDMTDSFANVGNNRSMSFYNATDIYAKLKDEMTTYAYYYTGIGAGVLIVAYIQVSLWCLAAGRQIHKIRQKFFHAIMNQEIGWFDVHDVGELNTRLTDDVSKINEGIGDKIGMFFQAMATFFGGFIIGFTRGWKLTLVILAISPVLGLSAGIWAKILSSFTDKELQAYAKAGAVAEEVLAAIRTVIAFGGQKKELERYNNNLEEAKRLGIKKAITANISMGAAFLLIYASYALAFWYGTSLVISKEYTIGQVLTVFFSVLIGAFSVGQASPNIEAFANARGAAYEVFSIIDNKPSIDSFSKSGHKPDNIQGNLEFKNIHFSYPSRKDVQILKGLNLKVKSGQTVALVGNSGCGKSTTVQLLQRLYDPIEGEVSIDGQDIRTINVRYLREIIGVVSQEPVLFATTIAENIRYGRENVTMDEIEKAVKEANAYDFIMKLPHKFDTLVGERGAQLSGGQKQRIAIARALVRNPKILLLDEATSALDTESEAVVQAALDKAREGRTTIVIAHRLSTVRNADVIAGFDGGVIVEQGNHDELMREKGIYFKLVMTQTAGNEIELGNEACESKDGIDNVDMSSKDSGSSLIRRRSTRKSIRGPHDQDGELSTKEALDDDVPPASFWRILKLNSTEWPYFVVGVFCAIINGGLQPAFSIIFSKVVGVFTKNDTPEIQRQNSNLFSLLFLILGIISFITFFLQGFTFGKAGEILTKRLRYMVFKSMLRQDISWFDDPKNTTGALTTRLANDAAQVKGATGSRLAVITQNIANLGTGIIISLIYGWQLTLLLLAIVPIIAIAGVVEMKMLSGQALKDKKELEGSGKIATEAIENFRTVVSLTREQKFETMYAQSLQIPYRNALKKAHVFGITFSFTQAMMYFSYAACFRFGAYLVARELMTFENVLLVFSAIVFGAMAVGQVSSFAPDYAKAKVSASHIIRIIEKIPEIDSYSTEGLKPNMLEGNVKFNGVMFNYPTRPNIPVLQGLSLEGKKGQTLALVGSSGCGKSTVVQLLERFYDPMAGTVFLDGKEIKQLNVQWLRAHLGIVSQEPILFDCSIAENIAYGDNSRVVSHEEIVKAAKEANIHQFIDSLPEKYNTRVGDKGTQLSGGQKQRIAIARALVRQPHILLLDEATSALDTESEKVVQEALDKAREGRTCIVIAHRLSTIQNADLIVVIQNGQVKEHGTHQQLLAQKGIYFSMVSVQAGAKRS

As to `C[C@@H]1C[C@H]2[C@@H]3CCC4=CC(=O)C=C[C@]4(C)[C@@]3(F)[C@@H](O)C[C@]2(C)[C@@]1(O)C(=O)CO`, the Activity result in test [1] and in test [2] was “inducer [Decrease]” in each case.
